Like-named read-outs stand apart in the source and are kept apart here.

The subject of one test is AsPC-1/Cas9 cell line. Put plainly: AsPC-1/Cas9 growth inhibition assay. Format: cell-based, human. The note with it: AsPC-1/Cas9 cells, 5 days culture, CellTiter Glo 2.0, read-out: Absolute IC50—Day 5 (nM) AsPC-1 Cas9. As to the method:
The human pancreatic cancer cell line AsPC-1 (ATCC Number CRL1682) was infected with Edit-R Lentiviral hCMV-Blast-Cas9 Nuclease Particle (Dharmacon, VCAS10124) in the presence of 8 μg/ml of Hexadimethrine bromide (Sigma, H9268), and after 24 hours it was exposed to 10 μg/ml of Blastcidin S (Thermo, A11139) to remove the uninfected cells, thereby establishing an AsPC-1/Cas9 cell line. The cells were maintenance cultured in a 5% CO2 incubator (37° C.) using RPMI-1640 (FujiFilm-Wako Pure Chemical Industries) containing 10% fetal bovine serum (FBS: SIGMA 173012) and penicillin/streptomycin (FujiFilm-Wako Pure Chemical Industries) (hereunder referred to simply as “culture medium”). After adding 45 μL of AsPC-1/Cas9 cell suspension prepared to 2.0×10^4 cells/mL using culture medium into each well of a 384-well plate (Greiner 781091), the cells were cultured overnight in a 5% CO2 incubator (37° C.). On the following day, 5 μL of the test substance diluted with culture medium was added to each well, and culturing was continued for 5 days in a 5% CO2 incubator (37° C.). Next, 25 μL of CellTiter Glo™ 2.0 (Promega) was added to each well, and the plate contents were mixed for 5 minutes using a plate mixer. The plate was stationed for 10 minutes at room temperature while shielded from light, and then the luminous intensity was measured with an ENVISION™ (Perkin-Elmer). The luminescence value of the wells with addition of test substance was determined as a relative value, with 100% as the luminescence value of the wells with cells but without addition of the test substance, and 0% as the luminescence value of the wells without cells. A plot of test substance concentration against luminescence value % approximated a 4-parameter logistic curve, and the test substance concentration necessary for 50% inhibition of cell growth (Absolute IC50) was calculated, and is shown in Table 4.
(ATP-based viability assays read luminescence as a measure of living cells.)

In test [1] the target is HiBiT tagged BRD4-BD1 protein in HEK293/LgBiT/hPGK/HiBiT-BRD4-BD1 cells (Homo sapiens, UniProt O60885). Put plainly: BET BD1 domain degradation assay. On the set-up: HiBit-linker-BRD4 BD1(1-209); host or cells: HEK293 (ATCC CRL-1573) stably transduced with LgBiT and HiBiT-BRD4-BD1. It counts as cell-based. The note with it: concentration for 50% reduction in HiBiT-BRD4-BD1 protein level, 3 hours, read-out: Absolute DC50—3 h (nM) HEK293_HiBiT-BRD4-BD1. An excerpt: HEK293/LgBiT/hPGK/HiBiT-BRD4-BD1 cells were established by introducing LgBiT and HiBiT-BRD4-BD1 into the human fetus renal cell line HEK293 (ATCC Number CRL-1573). LgBiT was introduced using lentivirus vector LV[Exp]-Bsd-EFS>{LgBiT}, and HiBiT-BRD4-BD1 was introduced with lentivirus vector LV[Exp]-Puro-hPGK>{HiBit-linker-BRD4 BD1(1-209)}. The vector plasmids LV[Exp]-Bsd-EFS>{LgBiT} and LV[Exp]-Puro-hPGK>{HiBit-linker-BRD4_BD1(1-209)} were constructed by VectorBuilder Co. The lentivirus was produced using a Mission Lentivirus Packaging Mix (Sigma) according to the manufacturer's protocol. Viral infection and drug selection of infected cells were carried out by the following published method (Akagi T. et. al, PNAS 2003; 100:13567-72). The cells were maintenance cultured in a 5% CO2 incubator (37° C.), using culture medium. A 45 μL portion of cell suspension of HEK293/LgBiT/hPGK/HiBiT-BRD4-BD1 cells prepared to 6.7×10^4 cells/mL using culture medium was added to each well of a collagen I-coated 384-well plate (Falcon 356667), and the cells were cultured overnight in a 5% CO2 incubator (37° C.). On the following day, 5 μL of test substance diluted with RPMI-1640 (FujiFilm-Wako Pure Chemical Industries) containing 10% fetal bovine serum (FBS: SIGMA 173012) and penicillin/streptomycin (FujiFilm-Wako Pure Chemical Industries) was added to each well, and culturing was continued for 3 hours in a 5% CO2 incubator (37° C.). The luminous intensity was measured using a Nono-Glo HiBiT Lytic Detection System (Promega), and the intracellular HiBiT tagged BRD4-BD1 protein level was calculated. After culturing, 25 μL of measuring reagent was added to each well and the plate contents were mixed for 5 minutes using a plate mixer. The plate was stationed for 10 minutes at room temperature while shielded from light, and then the luminous intensity was measured with an ENVISION′ (Perkin-Elmer). The luminescence value of the wells with addition of test substance was determined as a relative value, with 100% as the luminescence value of the wells with cells but without addition of the test substance, and 0% as the luminescence value of the wells without cells. A plot of test substance concentration against luminescence value % approximated a 4-parameter logistic curve, and the test substance concentration necessary for 50% reduction in protein level (Absolute DC50) was calculated and is shown in Table 4.
In general terms: The HiBiT peptide binds its large partner to form an active luciferase.

Turning to `Cc1ccc(C(=O)N2C[C@H](C)N(C3CCN(c4nc(C(CO)(OC5CC5)c5cccc(O)c5)c5cc(-c6cn(C)c(=O)c7[nH]ccc67)ccc5n4)CC3)C[C@H]2C)cc1N1CCC(=O)NC1=O` (stereo partly drawn) [Example 127, 1-(5-((2R,5S)-4-(1-(4-(1-Cyclopropoxy-2-hydroxy-1-(3-hydroxyphenyl)ethyl)-6-(6-methyl-7-oxo-6,7-dihydro-1H-pyrrolo[2,3-c]pyridin-4-yl)quinazolin-2-yl)piperidin-4-yl)-2,5-dimethylpiperazine-1-carbonyl)-2-methylphenyl)dihydropyrimidine-2,4-(1H,3H)-dione], the concentration for half-maximal inhibition (IC50) (as a rule, the point on the concentration scale where inhibition reaches its midpoint) in the test on AsPC-1/Cas9 cell line (Homo sapiens, ASPC1, 120 h) came out at 0.17 nM. Further, the DC50 (as a rule, the concentration giving 50% degradation) in test [1] worked out at 0.6 nM.

`COc1ccc(C(=O)NC2(C)CCN(C3CCN(c4nc(C(CO)(CC(C)C)c5cccs5)c5cc(-c6cn(C)c(=O)c7[nH]ccc67)ccc5n4)CC3)CC2)cc1N1CCC(=O)NC1=O` (stereo not shown) [Example 125, 3-(2,4-Dioxotetrahydropyrimidine-1(2H)-yl)-N-(1′-(4-(1-hydroxy-4-methyl-2-(thiophen-2-yl)pentan-2-yl)-6-(6-methyl-7-oxo-6,7-dihydro-1H-pyrrolo[2,3-c]pyridin-4-yl)quinazolin-2-yl)-4-methyl-[1,4′-bipiperidin]-4-yl)-4-methoxybenzamide]: in the test with AsPC-1/Cas9 cell line (Homo sapiens, ASPC1, 120 h), the IC50 was 0.2 nM. For the same compound, in test [1], the 50% degradation concentration (DC50) came to 0.19 nM.

Consider `COc1ccc(-n2cc(CN3CCN(CC4CCN(c5nc(C(CO)(OC6CC6)c6ccccc6)c6cc(-c7cc(C)c(=O)n(C)c7)ccc6n5)CC4)CC3)nn2)cc1N1CCC(=O)NC1=O` (stereo not shown) [Example 130, 1-(5-(4-((4-((1-(4-(1-Cyclopropoxy-2-hydroxy-1-phenylethyl)-6-(1,5-dimethyl-6-oxo-1,6-dihydropyridin-3-yl)quinazolin-2-yl)piperidin-4-yl)methyl)piperazin-1-yl)methyl)-1H-1,2,3-triazol-1-yl)-2-methoxyphenyl)-dihydropyrimidine-2,4(1H,3H)-dione], for which the IC50 in the test on AsPC-1/Cas9 cell line (Homo sapiens, ASPC1, 120 h) came out at 0.98 nM. Besides, the DC50 in test [1] turned out to be 0.19 nM.

In the case of `COc1ccc(C(=O)NC2(C)CCN(C3CCN(c4nc([C@@](CO)(OC5CC5)c5ccccc5)c5cc(-c6cn(C)c(=O)c7[nH]ccc67)ccc5n4)CC3)CC2)cc1N1CCC(=O)NC1=O` (stereo in doubt) [Example 104, N-(1′-(4-(1-Cyclopropoxy-2-hydroxy-1-phenylethyl)-6-(6-methyl-7-oxo-6,7-dihydro-1H-pyrrolo[2,3-c]pyridin-4-yl)quinazolin-2-yl)-4-methyl-[1,4′-bipiperidin]-4-yl)-3-(2,4-dioxotetrahydropyrimidine-1(2H)-yl)-4-methoxybenzamide], in the test on AsPC-1/Cas9 cell line (Homo sapiens, ASPC1, 120 h), the IC50 stood at 0.073 nM. In test [1], the DC50 was 0.15 nM.

Consider `COc1ccc(C#CCNC2(C)CCN(C3CCN(c4nc(C(CO)(OC5CC5)c5ccccc5)c5cc(-c6cn(C)c(=O)c7[nH]ccc67)ccc5n4)CC3)CC2)cc1N1CCC(=O)NC1=O` (stereo in doubt) [Example 145, (R)-1-(5-(3-((1′-(4-(1-Cyclopropoxy-2-hydroxy-1-phenylethyl)-6-(6-methyl-7-oxo-6,7-dihydro-1H-pyrrolo[2,3-c]pyridin-4-yl)quinazolin-2-yl)-4-methyl-[1,4′-bipiperidin]-4-yl)amino)prop-1-yn-1-yl)-2-methoxyphenyl)dihydropyrimidine-2,4(1H,3H)-dione], for which, in the test with AsPC-1/Cas9 cell line, the 50% inhibitory concentration (IC50) is 0.18 nM. In addition, the DC50 in test [1] came out at 0.045 nM.

On to `COc1ccc(C#CCNC2(C)CCN(C3CCN(c4nc([C@@](COCNC(=O)[C@H](CC(N)=O)NC(C)=O)(OC5CC5)c5ccccc5)c5cc(-c6cn(C)c(=O)c7[nH]ccc67)ccc5n4)CC3)CC2)cc1N1CCC(=O)NC1=O` [Example 131], for which, in the test on AsPC-1/Cas9 cell line (Homo sapiens, ASPC1, 120 h), the concentration for half-maximal inhibition (IC50) stood at 4.5 nM. Further, in test [1], the DC50 was 11 nM.

With `COc1ccc(C(=O)N2C[C@H](C)N(CC3CCN(c4nc([C@@](CN)(OC5CC5)c5ccccc5)c5cc(-c6cn(C)c(=O)c7[nH]ccc67)ccc5n4)CC3)C[C@H]2C)cc1N1CCC(=O)NC1=O` [Example 115, 1-(5-((2R,5 S)-4-((1-(4-((R)-2-Amino-1-cyclopropoxy-1-phenylethyl)-6-(6-methyl-7-oxo-6,7-dihydro-1H-pyrrolo[2,3-c]pyridin-4-yl)quinazolin-2-yl)piperidin-4-yl)methyl)-2,5-dimethylpiperazine-1-carbonyl)-2-methoxyphenyl)dihydropyrimidine-2,4-(1H,3H)-dione], in the test with AsPC-1/Cas9 cell line (Homo sapiens, ASPC1, 120 h), the IC50 came to 0.11 nM. In addition, in test [1], the DC50 was determined as 0.15 nM.

Consider `COc1ccc(C(=O)N2C[C@H](C)N(C3CCN(c4nc([C@@](CN)(OC5CC5)c5ccccc5)c5cc(-c6cn(C)c(=O)c7[nH]ccc67)ccc5n4)CC3)C[C@H]2C)cc1N1CCC(=O)NC1=O` [Example 114, 1-(5-((2R,5 S)-4-(1-(4-((R)-2-Amino-1-cyclopropoxy-1-phenylethyl)-6-(6-methyl-7-oxo-6,7-dihydro-1H-pyrrolo[2,3-c]pyridin-4-yl)quinazolin-2-yl)piperidin-4-yl)-2,5-dimethylpiperazine-1-carbonyl)-2-methoxyphenyl)dihydropyrimidine-2,4(1H,3H)-dione], for which the half-maximal inhibitory concentration (IC50) in the test with AsPC-1/Cas9 cell line (Homo sapiens, ASPC1, 120 h) is 0.11 nM. The half-maximal degradation concentration (DC50) in test [1] is 0.33 nM.

The values above are taken from patent US20240148895A1, “ANTIBODY-DRUG CONJUGATE” (Eisai R&D Management Co., Ltd., priority 2022, published 2024).
